Read-outs that look alike come from different tables or passages of the source.
Key:
[1] = system: Zucker Diabetic Fatty (ZDF) rats; assay: Oral glucose tolerance test in ZDF rats; format: in vivo, rat; conditions: oral glucose load
Procedure: According to a first example an oral glucose tolerance test is performed in overnight fasted 9-weeks old male Zucker Diabetic Fatty (ZDF) rats (ZDF/Crl-Lepr^fa). A pre-dose blood sample is obtained by tail bleed. Blood glucose is measured with a glucometer, and the animals are randomized for blood glucose (n=5/group). Subsequently, the groups receive a single oral administration of either vehicle alone (0.5% aqueous hydroxyethylcellulose containing 3 mM HCl and 0.015% Polysorbat 80) or vehicle containing the SGLT2 inhibitor. The animals receive an oral glucose load (2 g/kg) 30 min after compound administration. Blood glucose is measured in tail blood 30 min, 60 min, 90 min, 120 min, and 180 min after the glucose challenge. Glucose excursion is quantified by calculating the reactive glucose AUC. The data are presented as mean ±SEM. The two-sided unpaired Student t-test is used for statistical comparison of the control group and the active groups.
Compound (I.9) (1-chloro-4-(β-D-glucopyranos-1-yl)-2-[4-((S)-tetrahydrofuran-3-yloxy)-benzyl]-benzene) was orally administered to ZDF rats at doses of 0.3 mg/kg, 3 mg/kg or 30 mg/kg body weight. Compound (I.9) reduced glucose excursion by 15% at 0.3 mg/kg (not significant), by 62% at 3 mg/kg (p<0.001) and by 89% at 30 mg/kg (p<0.001).

[2] = Study .3: single dose, cross-over, food effect study in healthy volunteers, pharmacokinetic parameters; format: in vivo, human; conditions: 50 mg single dose
Procedure: 5. Pharmacokinetic Parameters
The pharmacokinetic parameters of pharmaceutical compositions and pharmaceutical dosage forms are assessed in healthy volunteer and patient populations. In the studies shown below, the participants fasted on the day of sampling, unless as otherwise stated (see for example study .3). The active substance in the studies below is the compound (I.9), preferably in the crystalline form (I.9X), and the dose of active ingredient is indicated in mg.
For the quantification of plasma concentrations of the active ingredient, 2.7 mL of blood was collected and transferred into an EDTA (ethylendiaminetetraacetic acid)-anticoagulant blood drawing tube. The EDTA-anticoagulated blood samples were centrifuged immediately after collection. Centrifugation lasted for about 10 minutes (at about 2,000×gf to 4,000×gf) at 4-8° C. or within 30 minutes while stored on ice. Concentrations of active substance in EDTA human plasma samples were quantitated using a HPLC/MS/MS method. The assay method comprised a solid phase supported liquid-liquid extraction of human plasma coupled with HPLC/MS/MS determination of the extracted samples. The HPLC/MS/MS assay was validated for the range of 1.11 to 1110 nM in human plasma.
Study .3: Single dose, cross-over, food effect study in a healthy volunteer population of N=14. Healthy volunteers were administered tablets as described in Example 10 (section Examples of formulations).
AUC0-inf:area under the concentration-time curve of the analyte in plasma over the time interval from 0 extrapolated to infinity.
Cmax: maximum concentration of the analyte in plasma.
Tmax: time from dosing to maximum concentration.

## OC[C@H]1O[C@@H](c2ccc(Cl)c(Cc3ccc(O[C@H]4CCOC4)cc3)c2)[C@H](O)[C@@H](O)[C@@H]1O [Compound (I.9), 1-chloro-4-(β-D-glucopyranos-1-yl)-2-[4-((S)-tetrahydrofuran-3-yloxy)-benzyl]-benzene]
[1]; 0.3 mg/kg oral, not significant
  reduced glucose excursion (baseline-corrected glucose AUC): 15%
[1]; 3 mg/kg oral, p<0.001
  reduced glucose excursion (baseline-corrected glucose AUC): 62%
[1]; 30 mg/kg oral, p<0.001
  reduced glucose excursion (baseline-corrected glucose AUC): 89%
[2]; Study .3/fasted
  AUC0-inf Max: 14.1 µM·h
  AUC0-inf Min: 6.45 µM·h
  AUC0-inf,norm Max: 282 nmol·h/L/mg
  AUC0-inf,norm Median: 159 nmol·h/L/mg
  AUC0-inf,norm Min: 129 nmol·h/L/mg
  AUC0-inf,norm gMean: 166 nmol·h/L/mg
  Cmax,norm Max: 40 nmol/L/mg
  Cmax,norm Median: 20 nmol/L/mg
  Cmax,norm Min: 18 nmol/L/mg
  Cmax,norm gMean: 23 nmol/L/mg
  tmax Max: 4.07 h
  tmax Min: 0.750 h
[2]; Study .3/fasted, read-out: Cmax Max
  Cmax: 2020 nM
[2]; Study .3/fasted, read-out: Cmax Min
  Cmax: 878 nM
[2]; Study .3/fed
  AUC0-inf Max: 10.8 µM·h
  AUC0-inf Min: 5.06 µM·h
  AUC0-inf,norm Max: 216 nmol·h/L/mg
  AUC0-inf,norm Median: 150 nmol·h/L/mg
  AUC0-inf,norm Min: 101 nmol·h/L/mg
  AUC0-inf,norm gMean: 149 nmol·h/L/mg
  Cmax,norm Max: 21 nmol/L/mg
  Cmax,norm Median: 17 nmol/L/mg
  Cmax,norm Min: 9 nmol/L/mg
  Cmax,norm gMean: 16 nmol/L/mg
  tmax Max: 4.00 h
  tmax Min: 1.00 h
[2]; Study .3/fed, read-out: Cmax Max
  Cmax: 1070 nM
[2]; Study .3/fed, read-out: Cmax Min
  Cmax: 436 nM
[2]; human, plasma, oral, 50 mg, Study .3/fasted, read-out: AUC0-inf Mean
  AUC(0-inf): 8.51 µM·h
[2]; human, plasma, oral, 50 mg, Study .3/fasted, read-out: AUC0-inf Median
  AUC(0-inf): 7.93 µM·h
[2]; human, plasma, oral, 50 mg, Study .3/fasted, read-out: AUC0-inf gMean
  AUC(0-inf): 8.31 µM·h
[2]; human, plasma, oral, 50 mg, Study .3/fasted, read-out: Cmax Mean
  Cmax: 1180 nM
[2]; human, plasma, oral, 50 mg, Study .3/fasted, read-out: Cmax Median
  Cmax: 1010 nM
[2]; human, plasma, oral, 50 mg, Study .3/fasted, read-out: Cmax gMean
  Cmax: 1140 nM
[2]; human, plasma, oral, 50 mg, Study .3/fasted, read-out: tmax Mean
  Tmax: 1.53 h
[2]; human, plasma, oral, 50 mg, Study .3/fasted, read-out: tmax Median
  Tmax: 1.02 h
[2]; human, plasma, oral, 50 mg, Study .3/fasted, read-out: tmax gMean
  Tmax: 1.29 h
[2]; human, plasma, oral, 50 mg, Study .3/fed, read-out: AUC0-inf Mean
  AUC(0-inf): 7.59 µM·h
[2]; human, plasma, oral, 50 mg, Study .3/fed, read-out: AUC0-inf Median
  AUC(0-inf): 7.49 µM·h
[2]; human, plasma, oral, 50 mg, Study .3/fed, read-out: AUC0-inf gMean
  AUC(0-inf): 7.46 µM·h
[2]; human, plasma, oral, 50 mg, Study .3/fed, read-out: Cmax Mean
  Cmax: 824 nM
[2]; human, plasma, oral, 50 mg, Study .3/fed, read-out: Cmax Median
  Cmax: 830 nM
[2]; human, plasma, oral, 50 mg, Study .3/fed, read-out: Cmax gMean
  Cmax: 806 nM
[2]; human, plasma, oral, 50 mg, Study .3/fed, read-out: tmax Mean
  Tmax: 2.46 h
[2]; human, plasma, oral, 50 mg, Study .3/fed, read-out: tmax Median
  Tmax: 2.48 h
[2]; human, plasma, oral, 50 mg, Study .3/fed, read-out: tmax gMean
  Tmax: 2.18 h

— patent US20180289678A1, “PHARMACEUTICAL COMPOSITION, PHARMACEUTICAL DOSAGE FORM, PROCESS FOR THEIR PREPARATION, METHODS FOR TREATING AND USES THEREOF” (Boehringer Ingelheim International GmbH, priority 2009, published 2018)
